Assay results as given in ChEMBL document CHEMBL4266006, “Synthesis and Evaluation of Aryl Quinolines as HIV-1 Integrase Multimerization Inhibitors” (ACS Med Chem Lett, 2018).

Molecular target: Human immunodeficiency virus type 1 integrase (Human immunodeficiency virus 1, UniProt Q7ZJM1)
Assay: Inhibition of N-terminal His/flag-tagged HIV1 integrase expressed in Escherichia coli BL21 (DE3) incubated for 2.5 hrs by HTRF assay
Conditions: not given; call rule not given here

Chain of Human immunodeficiency virus type 1 integrase (Q7ZJM1 whole entry): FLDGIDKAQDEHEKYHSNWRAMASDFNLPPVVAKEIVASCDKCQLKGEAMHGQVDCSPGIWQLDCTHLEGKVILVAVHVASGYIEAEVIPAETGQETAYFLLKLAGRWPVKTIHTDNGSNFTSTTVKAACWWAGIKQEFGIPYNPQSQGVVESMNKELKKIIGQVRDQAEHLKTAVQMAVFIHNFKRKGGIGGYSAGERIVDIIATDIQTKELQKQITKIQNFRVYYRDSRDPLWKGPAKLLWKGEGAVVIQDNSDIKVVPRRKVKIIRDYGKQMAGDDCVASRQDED

In the case of `Cc1nc2ccccc2c(-c2cncnc2)c1C(OC(C)(C)C)C(=O)O` (configuration not stated), the EC50 is reported as “Not Active”.
For `Cc1nc2ccccc2c(-c2ccc(-c3ccccc3)cc2)c1C(OC(C)(C)C)C(=O)O` (configuration not stated), the EC50 was “Not Active”.
In the case of `Cc1nc2ccccc2c(-c2cccc(C#N)c2)c1C(OC(C)(C)C)C(=O)O` (configuration not stated), the EC50 is reported as “Not Active”.
In the case of `Cc1nc2ccccc2c(-c2cccs2)c1C(OC(C)(C)C)C(=O)O` (configuration not stated), the EC50 is reported as “Not Active”.
`Cc1nc2ccccc2c(-c2ccc3c(c2)c2ccccc2n3-c2ccccc2)c1C(OC(C)(C)C)C(=O)O` (configuration not stated) was tested, and the EC50 was “Not Active”.

Same assay, conditions: read-out: EC50

In order of falling EC50:
1. Cc1nc2ccccc2c(-c2ccccc2C#N)c1C(OC(C)(C)C)C(=O)O (configuration not stated)  11100 nM
2. CC(=O)Nc1ccc(-c2c(C(OC(C)(C)C)C(=O)O)c(C)nc3ccccc23)cc1 (configuration not stated)  8410 nM
3. COc1ccccc1-c1c(C(OC(C)(C)C)C(=O)O)c(C)nc2ccccc12 (configuration not stated)  8390 nM
4. CSc1ccccc1-c1c(C(OC(C)(C)C)C(=O)O)c(C)nc2ccccc12 (configuration not stated)  4510 nM
5. Cc1nc2ccccc2c(-c2cccc(Cl)c2)c1C(OC(C)(C)C)C(=O)O (configuration not stated)  3790 nM
6. COc1ccc(-c2c(C(OC(C)(C)C)C(=O)O)c(C)nc3ccccc23)cc1OC (configuration not stated)  3700 nM
7. Cc1nc2ccccc2c(-c2ccc(C#N)cc2)c1C(OC(C)(C)C)C(=O)O (configuration not stated)  2970 nM
8. Cc1nc2ccccc2c(-c2ccoc2)c1C(OC(C)(C)C)C(=O)O (configuration not stated)  2210 nM
9. Cc1nc2ccccc2c(-c2cccc(F)c2)c1C(OC(C)(C)C)C(=O)O (configuration not stated)  2110 nM
10. CC(=O)c1ccc(-c2c(C(OC(C)(C)C)C(=O)O)c(C)nc3ccccc23)cc1 (configuration not stated)  1390 nM
11. COc1cccc(-c2c(C(OC(C)(C)C)C(=O)O)c(C)nc3ccccc23)c1 (configuration not stated)  1380 nM
12. Cc1nc2ccccc2c(-c2ccccc2)c1C(OC(C)(C)C)C(=O)O (configuration not stated)  1320 nM
13. CSc1cccc(-c2c(C(OC(C)(C)C)C(=O)O)c(C)nc3ccccc23)c1 (configuration not stated)  1000 nM
14. Cc1cccc(-c2c(C(OC(C)(C)C)C(=O)O)c(C)nc3ccccc23)c1 (configuration not stated)  950 nM
15. Cc1nc2ccccc2c(-c2ccc(C(F)(F)F)cc2)c1C(OC(C)(C)C)C(=O)O (configuration not stated)  720 nM
16. Cc1nc2ccccc2c(-c2ccccc2F)c1C(OC(C)(C)C)C(=O)O (configuration not stated)  580 nM
17. Cc1ccccc1-c1c(C(OC(C)(C)C)C(=O)O)c(C)nc2ccccc12 (configuration not stated)  510 nM
18. CSc1ccc(-c2c(C(OC(C)(C)C)C(=O)O)c(C)nc3ccccc23)cc1 (configuration not stated)  490 nM
19. Cc1nc2ccccc2c(-c2ccc(F)cc2)c1C(OC(C)(C)C)C(=O)O (configuration not stated)  490 nM
20. Cc1nc2ccccc2c(-c2ccc(OC(F)(F)F)cc2)c1C(OC(C)(C)C)C(=O)O (configuration not stated)  350 nM
21. Cc1nc2ccccc2c(-c2ccccc2Cl)c1C(OC(C)(C)C)C(=O)O (configuration not stated)  260 nM
22. Cc1ccc(-c2c(C(OC(C)(C)C)C(=O)O)c(C)nc3ccccc23)cc1 (configuration not stated)  240 nM
23. COc1ccc(-c2c(C(OC(C)(C)C)C(=O)O)c(C)nc3ccccc23)cc1 (configuration not stated)  230 nM
24. Cc1nc2ccccc2c(-c2ccc(Cl)cc2)c1C(OC(C)(C)C)C(=O)O (configuration not stated)  100 nM
25. Cc1nc2ccccc2c(-c2ccc3c(c2)OCCO3)c1C(OC(C)(C)C)C(=O)O (configuration not stated)  80 nM
26. Cc1nc2ccc(Br)cc2c(-c2ccc(Cl)cc2)c1C(OC(C)(C)C)C(=O)O (configuration not stated)  70 nM
27. Cc1nc2ccccc2c(-c2ccc3c(c2)CCCO3)c1C(OC(C)(C)C)C(=O)O (configuration not stated)  27 nM
